Source: patent US7560466B2, “Methods of treating or preventing autoimmune diseases with 2,4-pyrimidinediamine compounds” (Rigel Pharmaceuticals, Inc., priority 2003, dated 2009)
Read-outs that look alike come from different tables or passages of the source.

What was measured:
[1] = tested on: cultured human mast cells (CHMC), ionomycin-induced degranulation; assay: CHMC low cell density ionomycin activation: tryptase assay; format: cell-based; conditions: ionomycin activation, 3pt, read-out: LD Tryptase, CHMC, Iono, 3pt
[2] = tested on: cultured human mast cells (CHMC), IgE-induced degranulation; assay: CHMC low cell density IgE activation: tryptase assay; format: cell-based
Outline: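 Cord-blood CD34+-derived mucosal mast cells (SCF/IL-6 medium), 1000–1500 cells/well, preincubated with compound 1 h at 37°C, then anti-IgE stimulated 30 min at 37°C.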

[3] = low cell density CHMC, 3pt, read-out: LD Tryptase, CHMC, IgE, 3pt
[4] = low cell density CHMC, 8pt, read-out: LD Tryptase, CHMC, IgE, 8pt
[5] = CHMC low cell density, 3pt, read-out: LD Tryptase, CHMC, IgE, 3pt
[6] = CHMC low cell density, 8pt, read-out: LD Tryptase, CHMC, IgE, 8pt

IC50 ([1]; low cell density CHMC) | IC50 [2, 3] | IC50 [2, 4] | IC50 ([1]; CHMC low cell density) | IC50 [2, 5] | IC50 [2, 6] | Structure (SMILES)
> 10 µM | < 10 µM | < 10 µM | – | – | – | CC1(C)COc2ccc(Nc3nc(Nc4ccc(-c5cnco5)cc4)ncc3F)cc2N1 [Compound 223, N4-(3,4-Dihydro-3,3-dimethyl-2H,4H-benz[1,4]oxazin-6-yl)-5-fluoro-N2-[4-(oxazol-5-yl)phenyl]-2,4-pyrimidinediamine]
> 10 µM | < 10 µM | < 10 µM | – | – | – | C[C@@H]1Oc2ccc(Nc3nc(Nc4ccc(-c5cnco5)cc4)ncc3F)cc2NC1=O [Compound 225]
> 10 µM | < 10 µM | < 10 µM | – | – | – | Fc1cnc(Nc2cccc(-c3cnco3)c2)nc1Nc1ccc2c(c1)NCCO2 [Compound 232, N4-(3,4-Dihydro-2H,4H-benz[1,4]oxazin-6-yl)-5-fluoro-N2-[3-(oxazol-5-yl)phenyl]-2,4-pyrimidinediamine]
> 10 µM | < 10 µM | < 10 µM | – | – | – | CC1(C)COc2ccc(Nc3nc(Nc4cccc(-c5cnco5)c4)ncc3F)cc2N1 [Compound 233, N4-(3,4-Dihydro-3,3-dimethyl-2H,4H-benz[1,4]oxazin-6-yl)-5-fluoro-N2-[3-(oxazol-5-yl)phenyl]-2,4-pyrimidinediamine]
> 10 µM | < 10 µM | < 10 µM | – | – | – | CC1(C)COc2ccc(Nc3nc(Nc4ccc(-c5ncco5)cc4)ncc3F)cc2N1 [Compound 238, N4-(3,4-Dihydro-3,3-dimethyl-2H,4H-benz[1,4]oxazin-6-yl)-5-fluoro-N2-[4-(oxazol-2-yl)phenyl]-2,4-pyrimidinediamine]
> 10 µM | < 10 µM | < 10 µM | – | – | – | CN1CCOc2ccc(Nc3nc(Nc4ccc(-c5ncco5)cc4)ncc3F)cc21 [Compound 243, N4-(2,3-Dihydro-4-methyl-2H-benz[1,4]oxazin-6-yl)-5-fluoro-N2-[4-(oxazol-2-yl)phenyl]-2,4-pyrimidinediamine]
> 10 µM | < 10 µM | < 10 µM | – | – | – | COc1cc(Nc2ncc(F)c(Nc3ccc4c(c3)NCC(CCO)O4)n2)cc(OC)c1 (stereo not drawn) [Compound 253, N4-[3,4-Dihydro-2-(2-hydroxyethyl)-2H,4H-benz[1,4]oxazin-6-yl]-N2-(3,5-dimethoxyphenyl)-5-fluoro-2,4-pyrimidinediamine]
> 10 µM | < 10 µM | < 10 µM | – | – | – | CNC(=O)COc1cccc(Nc2ncc(F)c(Nc3ccc4c(c3)NC(=O)CS4)n2)c1 [Compound 254, 5-Fluoro-N2-[3-(N-methylamino)carbonylmethyleneoxyphenyl]-N4-(3-oxo-2H,4H-benzo[1,4]thiazin-6-yl)-2,4-pyrimidinediamine]
> 10 µM | < 10 µM | < 10 µM | – | – | – | Cc1cc(C)cc(Nc2ncc(F)c(Nc3ccc4c(c3)NCC(CCO)O4)n2)c1 (stereo not drawn) [Compound 255, N4-[2,3-Dihydro-2-(2-hydroxyethyl)-2H,4H-benz[1,4]oxazin-6-yl]-N2-(3,5-dimethylphenyl)-5-fluoro-2,4-pyrimidinediamine]
> 10 µM | < 10 µM | < 10 µM | – | – | – | CNC(=O)COc1cccc(Nc2ncc(F)c(Nc3ccc4c(c3)NCCS4)n2)c1 [Compound 258, N4-(3,4-Dihydro-2H,4H-benzo[1,4]thiazin-6-yl)-5-fluoro-N2-[3-(N-methylamino)carbonylmethyleneoxyphenyl]-2,4-pyrimidinediamine]
> 10 µM | < 10 µM | < 10 µM | – | – | – | CNC(=O)COc1cccc(Nc2ncc(F)c(Nc3ccc4c(c3)N(C)C(=O)CS4)n2)c1 [Compound 259, 5-Fluoro-N2-[3-(N-methylamino)carbonylmethyleneoxyphenyl]-N4-(4-methyl-3-oxo-2H-benzo[1,4]thiazin-6-yl)-2,4-pyrimidinediamine]
> 10 µM | < 10 µM | – | – | – | – | NC(=S)c1cccc(Nc2ncc(F)c(Nc3ccc4c(c3)NC(=O)CO4)n2)c1 [Compound 261, N2-(3-Benzothioamide)-5-fluoro-N4-(3-oxo-2H,4H-benz[1,4]oxazin-6-yl)-2,4-pyrimidinediamine]
> 10 µM | < 10 µM | – | – | – | – | NC(=S)c1cccc(Nc2ncc(F)c(Nc3ccc4c(c3)NC(=O)C(CCO)O4)n2)c1 (stereo not drawn) [Compound 262, N2-(3-Benzothioamide)-5-fluoro-N4-[2-(2-hydroxyethyl)-3-oxo-2H,4H-benz[1,4]oxazin-6-yl]-2,4-pyrimidinediamine]
– | – | – | > 10 µM | < 10 µM | < 10 µM | CNC(=O)COc1cccc(Nc2ncc(F)c(N(C)c3ccc4c(c3)OCCO4)n2)c1 [Compound 385, N4-(3,4-Ethylenedioxyphenyl)-5-fluoro-N4-methyl-N2-[3-(N-methylamino)carbonylmethyleneoxyphenyl]-2,4-pyrimidinediamine]
– | – | – | > 10 µM | < 10 µM | < 10 µM | CC(=O)N1CCN(c2cccc(Nc3ncc(F)c(Nc4ccc5c(c4)OC(F)(F)C(F)(F)O5)n3)c2)CC1 [Compound 431]
– | – | – | > 10 µM | < 10 µM | – | CC(=O)N1CCN(c2ccc(Nc3ncc(F)c(Nc4ccc5c(c4)OC(F)(F)C(F)(F)O5)n3)cc2)CC1 [Compound 432]
– | – | – | > 10 µM | < 10 µM | – | CNC(=O)COc1cccc(Nc2ncc(F)c(N(CC(=O)OC)c3ccc4c(c3)OCCO4)n2)c1 [Compound 446, N4-(3,4-Ethylenedioxyphenyl)-5-fluoro-N4-(methoxycarbonylmethyl)-N2-[3-(N-methylamino)carbonylmethyleneoxyphenyl]-2,4-pyrimidinediamine]
– | – | – | > 10 µM | < 10 µM | – | CNC(=O)c1cc(Nc2ncc(F)c(N(C)c3ccc4c(c3)OCCO4)n2)ccc1Cl [Compound 453, N2-[4-Chloro-3-(N-methylamino)carbonylphenyl]-N4-(3,4-ethylenedioxyphenyl)-5-fluoro-N4-methyl-4-pyrimidinediamine]
– | – | – | > 10 µM | > 10 µM | – | CN(C)c1ncc(F)c(N(C)c2ccc3c(c2)OCCO3)n1 [Compound 462, N2-Dimethyl-N4-(3,4-ethylenedioxyphenyl)-5-fluoro-N4-methyl-2,4-pyrimidinediamine]
– | – | – | < 10 µM | < 10 µM | < 10 µM | CNS(=O)(=O)c1ccc(Nc2ncc(F)c(Nc3ccc4c(c3)NC(=O)C(C)(C)O4)n2)cc1OC [Compound 496, N4-(2,2-Dimethyl-3-oxo-4H-benz[1,4]oxazin-6-yl)-5-fluoro-N2-[3-methoxyphenyl-4-(methylamino)sulfonyl]-2,4-pyrimidinediamine]
– | – | – | < 10 µM | < 10 µM | < 10 µM | CNC(=O)COc1c(C)cc(Nc2ncc(F)c(N(C)c3ccc4c(c3)OCCO4)n2)cc1C [Compound 635, N2-[3,5-Dimethyl-4-(N-methylamino)carbonylmethyleneoxyphenyl]-N4-(3,4-ethylenedioxyphenyl)-5-fluoro-N4-methyl-2,4-pyrimidinediamine]
– | – | – | < 10 µM | < 10 µM | < 10 µM | CNC(=O)COc1c(C)cc(Nc2ncc(F)c(N(C)c3ccc4c(c3)OC(F)(F)C(F)(F)O4)n2)cc1C [Compound 636, N2-[3,5-Dimethyl-4-(N-methylamino)carbonylmethyleneoxyphenyl]-5-fluoro-N4-methyl-N4-[3,4-(tetrafluoroethylenedioxy)phenyl]-2,4-pyrimidinediamine]
